Assay results: the supplement of paper PMC11208160

Assay: recombinant UMI read abundance after kanamycin selection (control-corrected) (log10(CPM+1)); higher = more efficient recombination; extreme values may be limits of the assay; sequences stand for … in AGTGCAGAGAAAATCGGCCAGTTTTCTCTGCCTGCAGTCCGCATGCCGTGGGACCCCTTGGGTTCTAACCTGTTGCCTAGATTTATGCAGCGGACTGCCTTTCTCCCAAAGTGATAAACCGG…AGGTTGGTTTCACT; site = the 11-nt donor
Summary of the method: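 After plating on IPTG (0.07 mM) plus kanamycin, or unselected, in two replicates, recombinant UMIs were PCR-amplified across the donor–target junction and sequenced. The cells were Escherichia coli co-electroporated with a UMI-tagged donor and donor-binding-loop pair library and a target plasmid with a fixed target and T7-inducible IS621 bridge recombinase. Values are log10(CPM+1), with CPM averaged over replicates and scaled by control-derived factors.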
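Also: IS621 bridge recombinase in Escherichia coli cells against a fixed T5 target plasmid.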

Going from “AGGTAGGCATGGACCGGTTTTCCCGGTAATCCGTATTTGGC (site ATGTAGGCTGC)” to “AGGTGCGCATGGACCGGTTTTCCCGGTAATCCGTATTTGTA (site AGGTGCGCTTA)”, the “recombinant UMI read abundance (log10)” value rises from 0.775 to 1.81.

Compared with “AGGTGGACATGGACCGGTTTTCCCGGTAATCCGTATTTGCA (site AGGAAGACTTG)”, “AGGTGGACATGGACCGGTTTTCCCGGTAATCCGTATTTGCA (site AGGTGGACTTG)” is higher in “recombinant UMI read abundance (log10)” value: 1.46 for the first, 2.73 for the second.

Compared with “AGGTGGACATGGACCGGTTTTCCCGGTAATCCGTATTTGTA (site AGGTGGACTTA)”, “AGGTGGCCATGGACCGGTTTTCCCGGTAATCCGTATTTGCC (site AGGTGGCCTGG)” is lower in “recombinant UMI read abundance (log10)” value: 2.2 for the first, 0 for the second.

Going from “AGGTTCACATGGACCGGTTTTCCCGGTAATCCGTATTTGCC (site AGGTTCACTGG)” to “AGGTTCCCATGGACCGGTTTTCCCGGTAATCCGTATTTGGG (site AGGTTCCCTCA)”, the “recombinant UMI read abundance (log10)” value falls from 2.11 to 0.0189.

“AGGTTCCCATGGACCGGTTTTCCCGGTAATCCGTATTTGGG (site AGGTTCCCTCC)” and “AGGTTCCCATGGACCGGTTTTCCCGGTAATCCGTATTTGGG (site AGGTTCCCTCG)” are within 0.2 log units of each other in “recombinant UMI read abundance (log10)” value: 0.0153 for the first, 0.0155 for the second.

Compared with “AGGTTCCCATGGACCGGTTTTCCCGGTAATCCGTATTTGGG (site AGGTTCCCTCT)”, “AGTAAAGCATGGACCGGTTTTCCCGGTAATCCGTATTTGCA (site AGTAAAGCTTG)” is higher in “recombinant UMI read abundance (log10)” value: 0.0453 for the first, 1.97 for the second.

First: AGTAACGCATGGACCGGTTTTCCCGGTAATCCGTATTTGGT (site AGTAACGCTAC)
Second: AGTAAGACATGGACCGGTTTTCCCGGTAATCCGTATTTGAA (site AGGAAGACTTG)
The “recombinant UMI read abundance (log10)” value of the first is higher: 1.7 for the first, 0 for the second.

“AGTAAGACATGGACCGGTTTTCCCGGTAATCCGTATTTGAA (site AGTAAGACTTT)” and “AGTAAGACATGGACCGGTTTTCCCGGTAATCCGTATTTGTC (site AGTAAGACTGA)” are within 0.2 log units of each other in “recombinant UMI read abundance (log10)” value: 1.27 for the first, 1.36 for the second.

Going from “AGTAAGCCATGGACCGGTTTTCCCGGTAATCCGTATTTGCA (site AGGAAGACTTG)” to “AGTAAGCCATGGACCGGTTTTCCCGGTAATCCGTATTTGCA (site AGTAAGCCTTG)”, the “recombinant UMI read abundance (log10)” value rises from 0 to 0.539.

“AGTAAGGCATGGACCGGTTTTCCCGGTAATCCGTATTTGCT (site AGAAAGGCTAG)” and “AGTAAGGCATGGACCGGTTTTCCCGGTAATCCGTATTTGCT (site AGCAAGGCTAG)” are within 0.2 log units of each other in “recombinant UMI read abundance (log10)” value: 1.39 for the first, 1.21 for the second.

First: AGTAAGGCATGGACCGGTTTTCCCGGTAATCCGTATTTGCT (site AGGAAGGCTAG)
Second: AGTAAGGCATGGACCGGTTTTCCCGGTAATCCGTATTTGCT (site AGTAAGGCTAG)
The “recombinant UMI read abundance (log10)” value of the first is lower: 0.32 for the first, 2.75 for the second.

First: AGTAAGTCATGGACCGGTTTTCCCGGTAATCCGTATTTGAA (site AGTAAGTCTTT)
Second: AGTAGCACATGGACCGGTTTTCCCGGTAATCCGTATTTGAG (site AGTAGCACTCT)
The “recombinant UMI read abundance (log10)” value of the first is higher: 2.1 for the first, 1.24 for the second.

First: AGTAGGACATGGACCGGTTTTCCCGGTAATCCGTATTTGCA (site AGGAAGACTTG)
Second: AGTAGGACATGGACCGGTTTTCCCGGTAATCCGTATTTGCA (site AGTAGGACTTG)
The “recombinant UMI read abundance (log10)” value of the first is lower: 1.45 for the first, 2.91 for the second.

“AGTAGGGCATGGACCGGTTTTCCCGGTAATCCGTATTTGAG (site AGTAGGGCTCT)” and “AGTCAAGCATGGACCGGTTTTCCCGGTAATCCGTATTTGAA (site AGTCAAGCTTT)” are within 0.2 log units of each other in “recombinant UMI read abundance (log10)” value: 1.41 for the first, 1.39 for the second.

Going from “AGTCCAACATGGACCGGTTTTCCCGGTAATCCGTATTTGTA (site AGTCCAACTTA)” to “AGTCCAACATGGACCGGTTTTCCCGGTAATCCGTATTTGTA (site CGTCCAACTTA)”, the “recombinant UMI read abundance (log10)” value falls from 0.694 to 0.

“AGTCCAACATGGACCGGTTTTCCCGGTAATCCGTATTTGTA (site GGTCCAACTTA)” and “AGTCCAACATGGACCGGTTTTCCCGGTAATCCGTATTTGTA (site TGTCCAACTTA)” are within 0.2 log units of each other in “recombinant UMI read abundance (log10)” value: 0.172 for the first, 0.141 for the second.

Going from “AGTCCTTCATGGACCGGTTTTCCCGGTAATCCGTATTTGCA (site AGTCCTTCTTG)” to “AGTCTACCATGGACCGGTTTTCCCGGTAATCCGTATTTGCT (site AGTCTACCTAG)”, the “recombinant UMI read abundance (log10)” value falls from 1.24 to 0.

“AGTGAGACATGGACCGGTTTTCCCGGTAATCCGTATTTGGT (site AATGAGACTAC)” and “AGTGAGACATGGACCGGTTTTCCCGGTAATCCGTATTTGGT (site ACTGAGACTAC)” are within 0.2 log units of each other in “recombinant UMI read abundance (log10)” value: 0.439 for the first, 0.312 for the second.

First: AGTGAGACATGGACCGGTTTTCCCGGTAATCCGTATTTGGT (site AGTGAGACTAC)
Second: AGTGAGACATGGACCGGTTTTCCCGGTAATCCGTATTTGGT (site ATTGAGACTAC)
The “recombinant UMI read abundance (log10)” value of the first is higher: 1.21 for the first, 0.546 for the second.

Going from “AGTGCAACATGGACCGGTTTTCCCGGTAATCCGTATTTGGC (site AGTGCAACTGC)” to “AGTGGCTCATGGACCGGTTTTCCCGGTAATCCGTATTTGAG (site AGTGGCTCTCT)”, the “recombinant UMI read abundance (log10)” value rises from 0 to 1.27.

Compared with “AGTGGGACATGGACCGGTTTTCCCGGTAATCCGTATTTGGC (site AGTGGGACTGC)”, “AGTGTAGCATGGACCGGTTTTCCCGGTAATCCGTATTTGGG (site AGTGTAGCTCC)” is lower in “recombinant UMI read abundance (log10)” value: 2.85 for the first, 0.00834 for the second.

Compared with “AGTGTGACATGGACCGGTTTTCCCGGTAATCCGTATTTGTA (site AGTGTGACTTA)”, “AGTGTGTCATGGACCGGTTTTCCCGGTAATCCGTATTTGAC (site AATGTGTCTGT)” is lower in “recombinant UMI read abundance (log10)” value: 1.91 for the first, 0 for the second.

First: AGTGTGTCATGGACCGGTTTTCCCGGTAATCCGTATTTGAC (site ACTGTGTCTGT)
Second: AGTGTGTCATGGACCGGTTTTCCCGGTAATCCGTATTTGAC (site AGTGTGTCTGT)
The “recombinant UMI read abundance (log10)” value of the first is lower: 0.812 for the first, 1.98 for the second.

First: AGTGTGTCATGGACCGGTTTTCCCGGTAATCCGTATTTGAC (site ATTGTGTCTGT)
Second: AGTGTTACATGGACCGGTTTTCCCGGTAATCCGTATTTGCT (site AGTGTTACTAG)
The “recombinant UMI read abundance (log10)” value of the first is lower: 0 for the first, 2.01 for the second.

First: AGTTAGACATGGACCGGTTTTCCCGGTAATCCGTATTTGCA (site AGGAAGACTTG)
Second: AGTTAGACATGGACCGGTTTTCCCGGTAATCCGTATTTGCA (site AGTTAGACTTG)
The “recombinant UMI read abundance (log10)” value of the first is lower: 1.51 for the first, 1.93 for the second.

Compared with “AGTTCAGCATGGACCGGTTTTCCCGGTAATCCGTATTTGGC (site AGTTCAGCTGC)”, “AGTTCCACATGGACCGGTTTTCCCGGTAATCCGTATTTGGC (site AGTTCCACTGC)” is higher in “recombinant UMI read abundance (log10)” value: 0.972 for the first, 1.42 for the second.

Going from “AGTTCCACATGGACCGGTTTTCCCGGTAATCCGTATTTGTA (site AGTTCCACTTA)” to “AGTTGGTCATGGACCGGTTTTCCCGGTAATCCGTATTTGAA (site AGTTGGTCTTT)”, the “recombinant UMI read abundance (log10)” value falls from 0.751 to 0.435.

First: AGTTTCGCATGGACCGGTTTTCCCGGTAATCCGTATTTGGT (site AGTTTCGCTAC)
Second: ATAAGGCCATGGACCGGTTTTCCCGGTAATCCGTATTTGAT (site ATAAGGCCTAT)
The “recombinant UMI read abundance (log10)” value of the first is higher: 0.564 for the first, 0.221 for the second.

“ATAAGGCCATGGACCGGTTTTCCCGGTAATCCGTATTTGAT (site ATAAGGCCTCT)” and “ATAAGGCCATGGACCGGTTTTCCCGGTAATCCGTATTTGAT (site ATAAGGCCTGT)” are within 0.2 log units of each other in “recombinant UMI read abundance (log10)” value: 0.00711 for the first, 0 for the second.

Going from “ATAAGGCCATGGACCGGTTTTCCCGGTAATCCGTATTTGAT (site ATAAGGCCTTT)” to “ATAATGCCATGGACCGGTTTTCCCGGTAATCCGTATTTGAC (site ATAAAGCCTGT)”, the “recombinant UMI read abundance (log10)” value rises from 0.0201 to 0.589.

“ATAATGCCATGGACCGGTTTTCCCGGTAATCCGTATTTGAC (site ATAACGCCTGT)” and “ATAATGCCATGGACCGGTTTTCCCGGTAATCCGTATTTGAC (site ATAAGGCCTGT)” are within 0.2 log units of each other in “recombinant UMI read abundance (log10)” value: 0.155 for the first, 0 for the second.

Going from “ATAATGCCATGGACCGGTTTTCCCGGTAATCCGTATTTGAC (site ATAATGCCTGT)” to “ATACCCACATGGACCGGTTTTCCCGGTAATCCGTATTTGAC (site ATACCCACTGT)”, the “recombinant UMI read abundance (log10)” value rises from 2.03 to 2.65.

Compared with “ATACGCACATGGACCGGTTTTCCCGGTAATCCGTATTTGAA (site ATACGCACTTT)”, “ATACGCACATGGACCGGTTTTCCCGGTAATCCGTATTTGTT (site ATACGCACTAA)” is lower in “recombinant UMI read abundance (log10)” value: 1.55 for the first, 1.29 for the second.

Going from “ATACTATCATGGACCGGTTTTCCCGGTAATCCGTATTTGAC (site ATACTATCTGT)” to “ATACTATCATGGACCGGTTTTCCCGGTAATCCGTATTTGAC (site CTAGTATCTGT)”, the “recombinant UMI read abundance (log10)” value falls from 3.39 to 0.
